Results as given in paper PMC8341145 (RSC Chemical Biology, 2021).

Key:
Assay in all cases: CYP inhibition assay
Format in all cases: cell-based
[1] = target: CYP2C9 (Homo sapiens, UniProt P11712)
[2] = target: CYP2C19 (Homo sapiens, UniProt P33261)
[3] = target: CYP3A4 (Homo sapiens, UniProt P08684)
[4] = target: CYP2D6 (Homo sapiens, UniProt P10635)
[5] = target: T1, CYP2C8 (Homo sapiens, UniProt P10632)
T1 sequence (P10632 1-490): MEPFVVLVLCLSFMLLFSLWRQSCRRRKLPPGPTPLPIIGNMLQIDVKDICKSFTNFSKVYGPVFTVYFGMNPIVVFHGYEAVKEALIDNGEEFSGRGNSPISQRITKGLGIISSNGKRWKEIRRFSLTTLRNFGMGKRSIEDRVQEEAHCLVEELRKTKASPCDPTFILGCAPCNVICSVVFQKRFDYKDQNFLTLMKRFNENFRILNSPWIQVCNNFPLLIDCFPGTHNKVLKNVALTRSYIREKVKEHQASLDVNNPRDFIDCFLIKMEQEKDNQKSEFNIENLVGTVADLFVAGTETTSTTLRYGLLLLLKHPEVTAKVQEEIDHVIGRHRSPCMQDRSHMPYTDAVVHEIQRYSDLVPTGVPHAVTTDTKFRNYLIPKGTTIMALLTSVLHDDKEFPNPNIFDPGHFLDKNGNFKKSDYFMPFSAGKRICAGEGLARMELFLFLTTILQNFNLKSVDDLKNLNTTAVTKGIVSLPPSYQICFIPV

[6] = test system: CYP1A; conditions: read-out: CYP1A

CYP2D6, sequence (P10635 whole entry): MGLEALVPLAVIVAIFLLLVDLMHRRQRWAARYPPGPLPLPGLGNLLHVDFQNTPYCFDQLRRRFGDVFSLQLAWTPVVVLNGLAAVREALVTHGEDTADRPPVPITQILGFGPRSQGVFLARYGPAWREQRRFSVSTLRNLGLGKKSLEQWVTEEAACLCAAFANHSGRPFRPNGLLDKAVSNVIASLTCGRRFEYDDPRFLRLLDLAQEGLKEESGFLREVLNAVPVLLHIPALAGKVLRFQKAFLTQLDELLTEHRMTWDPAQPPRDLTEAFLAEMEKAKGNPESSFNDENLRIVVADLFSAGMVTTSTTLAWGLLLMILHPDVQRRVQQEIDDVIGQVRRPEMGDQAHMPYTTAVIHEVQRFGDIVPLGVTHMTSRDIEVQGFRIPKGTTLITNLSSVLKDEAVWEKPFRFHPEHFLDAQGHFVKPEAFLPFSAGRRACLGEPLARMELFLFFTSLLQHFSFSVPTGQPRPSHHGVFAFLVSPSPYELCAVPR
CYP2C19, sequence (P33261 whole entry): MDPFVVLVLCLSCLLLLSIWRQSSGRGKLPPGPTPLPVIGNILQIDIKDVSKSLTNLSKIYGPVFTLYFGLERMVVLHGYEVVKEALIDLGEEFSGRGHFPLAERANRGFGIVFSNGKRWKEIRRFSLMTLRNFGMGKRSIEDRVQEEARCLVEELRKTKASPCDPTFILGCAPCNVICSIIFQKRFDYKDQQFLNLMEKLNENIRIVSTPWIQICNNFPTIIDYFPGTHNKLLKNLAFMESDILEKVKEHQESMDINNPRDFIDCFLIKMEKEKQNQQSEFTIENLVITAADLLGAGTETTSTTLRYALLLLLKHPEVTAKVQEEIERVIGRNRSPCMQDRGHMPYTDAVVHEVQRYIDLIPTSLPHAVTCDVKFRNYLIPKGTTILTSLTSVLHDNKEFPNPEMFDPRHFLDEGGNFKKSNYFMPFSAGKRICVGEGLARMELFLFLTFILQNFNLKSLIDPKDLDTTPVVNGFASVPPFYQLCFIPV
CYP3A4, sequence (P08684 2-503): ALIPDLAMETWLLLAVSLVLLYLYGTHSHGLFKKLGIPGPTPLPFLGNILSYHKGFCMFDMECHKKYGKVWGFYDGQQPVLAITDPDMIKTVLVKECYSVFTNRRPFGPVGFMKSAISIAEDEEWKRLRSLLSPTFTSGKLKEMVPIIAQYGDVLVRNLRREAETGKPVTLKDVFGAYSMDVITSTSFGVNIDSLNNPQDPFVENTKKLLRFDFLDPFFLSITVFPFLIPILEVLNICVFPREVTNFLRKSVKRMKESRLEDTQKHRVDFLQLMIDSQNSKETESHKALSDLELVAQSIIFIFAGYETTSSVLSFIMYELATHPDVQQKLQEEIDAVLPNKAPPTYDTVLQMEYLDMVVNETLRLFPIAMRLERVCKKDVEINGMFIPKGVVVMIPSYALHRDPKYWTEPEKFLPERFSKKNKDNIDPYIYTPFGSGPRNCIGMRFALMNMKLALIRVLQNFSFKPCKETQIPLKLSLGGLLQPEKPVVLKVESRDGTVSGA
CYP2C9, sequence (P11712 whole entry): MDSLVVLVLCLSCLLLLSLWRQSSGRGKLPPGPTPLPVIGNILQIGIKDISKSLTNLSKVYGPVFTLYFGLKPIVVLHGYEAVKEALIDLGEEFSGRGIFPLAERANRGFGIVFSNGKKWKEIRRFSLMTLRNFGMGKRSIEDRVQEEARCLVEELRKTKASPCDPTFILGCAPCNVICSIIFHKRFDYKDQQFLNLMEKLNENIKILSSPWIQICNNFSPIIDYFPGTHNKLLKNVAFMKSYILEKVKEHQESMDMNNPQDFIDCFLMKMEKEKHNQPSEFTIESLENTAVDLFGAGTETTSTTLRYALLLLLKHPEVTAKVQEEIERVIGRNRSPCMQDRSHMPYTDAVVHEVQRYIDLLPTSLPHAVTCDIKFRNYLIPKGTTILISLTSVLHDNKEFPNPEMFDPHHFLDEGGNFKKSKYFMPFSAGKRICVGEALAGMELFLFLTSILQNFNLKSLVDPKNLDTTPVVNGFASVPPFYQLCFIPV

Compound	IC50 [1]	IC50 [2]	IC50 [3]	IC50 [4]	IC50 [5]	IC50 [6]
CN(C[c-]1cccc1)CC(O)(Cn1cncn1)c1ccc(F)cc1F.Cl.[Fe+2].c1cc[cH-]c1 (stereo not shown) [2a, N-(ferrocenylmethyl)-2-(2,4-difluorophenyl)-2-hydroxy-N-methyl-3-(1H-1,2,4-triazol-1-yl)propan-1-aminium chloride]	3.33 ± 0.71 µM	< 0.4 µM	0.4 ± 0.06 µM	2.71 ± 0.12 µM	0.64 ± 0.09 µM	10.4 ± 0.41 µM
OC(Cn1cncn1)(Cn1cncn1)c1ccc(F)cc1F [Fluconazole]						> 100 µM
